The supplement of paper PMC10307832

Key:
Assay in all cases: relative viability (nuclei count vs DMSO), 5 days (fraction); higher = more cells survive
[1] = test system: NCI-H1944
Summary of the method: (§1)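 Relative viability was taken as the ratio of nuclei in treated wells to nuclei in vehicle wells. Lung cancer cell lines in 1536-well plates received compounds by pin tool one day after seeding, either one drug alone or a fixed anchor-drug dose plus five library-drug doses (not always all listed) in √10 steps. Nuclei were counted on 4× images after 5 days of treatment, and values are medians of duplicate plates.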

[2] = test system: LCLC-97TM1
Summary of the method: as §1

[3] = test system: NCI-H1793
Summary of the method: as §1

[4] = test system: UMC-11
Summary of the method: as §1

[5] = test system: HCC-366
Summary of the method: as §1

[6] = test system: EPLC-272H
Summary of the method: as §1

[7] = test system: COR-L 105
Summary of the method: as §1

[8] = test system: NCI-H1915
Summary of the method: as §1

[9] = test system: NCI-H1755
Summary of the method: as §1

[10] = test system: LC-2-ad
Summary of the method: as §1

[11] = test system: NCI-H2085
Summary of the method: as §1

## NC(=O)Nc1cc(-c2cccc(F)c2)sc1C(=O)N[C@H]1CCCNC1 [AZD7762] + CS(=O)(=O)CCNCc1ccc(-c2ccc3ncnc(Nc4ccc(OCc5cccc(F)c5)c(Cl)c4)c3c2)o1 [Lapatinib] (partner 2 µM)
[1]; first compound 0.01 µM
  relative viability: 0.977
[1]; first compound 0.03162 µM
  relative viability: 0.876
[1]; first compound 0.1 µM
  relative viability: 1.01
[1]; first compound 0.3162 µM
  relative viability: 0.846
[1]; first compound 1 µM
  relative viability: 1.01
[2]; first compound 0.01 µM
  relative viability: 0.834
[2]; first compound 0.03162 µM
  relative viability: 1.13
[2]; first compound 0.1 µM
  relative viability: 0.821
[2]; first compound 0.3162 µM
  relative viability: 0.555
[2]; first compound 1 µM
  relative viability: 0.609
[3]; first compound 0.01 µM
  relative viability: 1.08
[3]; first compound 0.03162 µM
  relative viability: 0.721
[3]; first compound 0.1 µM
  relative viability: 0.805
[3]; first compound 0.3162 µM
  relative viability: 0.874
[3]; first compound 1 µM
  relative viability: 0.261
[4]; first compound 0.01 µM
  relative viability: 0.936
[4]; first compound 0.03162 µM
  relative viability: 1.01
[4]; first compound 0.1 µM
  relative viability: 0.871
[4]; first compound 0.3162 µM
  relative viability: 0.743
[4]; first compound 1 µM
  relative viability: 0.398
[5]; first compound 0.01 µM
  relative viability: 0.991
[5]; first compound 0.03162 µM
  relative viability: 1.12
[5]; first compound 0.1 µM
  relative viability: 0.879
[5]; first compound 0.3162 µM
  relative viability: 0.375
[5]; first compound 1 µM
  relative viability: 0.0771
[6]; first compound 0.01 µM
  relative viability: 0.875
[6]; first compound 0.03162 µM
  relative viability: 1.19
[6]; first compound 0.1 µM
  relative viability: 0.846
[6]; first compound 0.3162 µM
  relative viability: 0.967
[6]; first compound 1 µM
  relative viability: 0.912
[7]; first compound 0.01 µM
  relative viability: 0.413
[7]; first compound 0.03162 µM
  relative viability: 0.353
[7]; first compound 0.1 µM
  relative viability: 0.254
[7]; first compound 0.3162 µM
  relative viability: 0.332
[7]; first compound 1 µM
  relative viability: 0.282
[8]; first compound 0.01 µM
  relative viability: 1
[8]; first compound 0.03162 µM
  relative viability: 1
[8]; first compound 0.1 µM
  relative viability: 0.943
[8]; first compound 0.3162 µM
  relative viability: 0.909
[8]; first compound 1 µM
  relative viability: 0.933
[9]; first compound 0.01 µM
  relative viability: 1.07
[9]; first compound 0.03162 µM
  relative viability: 1.1
[9]; first compound 0.1 µM
  relative viability: 1.17
[9]; first compound 0.3162 µM
  relative viability: 0.924
[9]; first compound 1 µM
  relative viability: 0.364
[10]; first compound 0.01 µM
  relative viability: 1.05
[10]; first compound 0.03162 µM
  relative viability: 1.04
[10]; first compound 0.1 µM
  relative viability: 0.47
[10]; first compound 0.3162 µM
  relative viability: 0.392
[10]; first compound 1 µM
  relative viability: 0.258
[11]; first compound 0.01 µM
  relative viability: 0.804
[11]; first compound 0.03162 µM
  relative viability: 0.878
[11]; first compound 0.1 µM
  relative viability: 0.873
[11]; first compound 0.3162 µM
  relative viability: 0.78
[11]; first compound 1 µM
  relative viability: 0.6
